{"source": "patent US20250170154A1", "about": "(GreenStone Biosciences, Inc., priority 2023, published 2025)", "key": {"[1]": {"assay": "Approximate solubility in selected solvents by visual observation", "format": "physicochemical", "conditions": "thermodynamic from solid", "description": "Solubility testing of compound 2 was carried out by adding 20 μL aliquots (to a maximum of 1 mL) of selected solvents (water, methanol, DCM, and THF) to about 5 mg samples of compound 2 at 25 C with vortexing and sonication; and the approximate solubility determined by visual observation. Similar testing was carried out at 50 C, using about 10 mg samples of compound 2."}, "[2]": {"assay": "Stability in simulated gastric fluid (SGF)", "format": "in vitro ADME", "conditions": "SGF pH 1.2, 37° C., 2 μM", "description": "The stability of compounds 1 to 4, and the control compound omeprazole, were measured in simulated gastric fluid (SGF: 0.2% w/v sodium chloride, 0.7% v/v hydrochloric acid, and 0.32% w/v pepsin in deionized water, pH 1.2±0.05). Stock solutions of the compounds (10 mM) were diluted to 200 μM in DMSO, then duplicate 2 μL aliquots added to 96-well plates for time points 0, 1, 2, 6, and 24 hours. SGF (198 μL) was added to all wells except those for time 0, to give a starting compound concentration of 2 μM; and the samples were incubated at 37° C. with agitation at 600 rpm for the prescribed times. After incubation, 200 μL of each sample was extracted and mixed with 400 μL cold ACN containing 200 ng/mL tolbutamide and labetalol as internal standards. The samples were centrifuged at […] for 20 minutes at 4° C., and the supernatants (60 μL) each diluted with purified water (180 μL) for LC/MS/MS analysis. The percentage of the test compound remaining at each time point was calculated based on the ratio of the peak area of the analyte to the internal standards."}, "log P": {"assay": "log P", "format": "physicochemical"}, "Myh6-Cre:FLNC^wt/F mouse": {"tested_on": "Myh6-Cre:FLNC^wt/F mouse", "assay": "FLNC knockout model, echocardiography", "format": "in vivo", "conditions": "50 mg/Kg/day by gavage for 6 weeks", "description": "The LMNA^H222P/H222P mouse is a well-established model for studying dilated cardiomyopathy and heart failure, with cardiac dysfunction typically beginning to manifest at around 16 weeks of age. In this study, 16-week-old LMNA^H222P/H222P mice underwent baseline echocardiography prior to treatment. Compound 2 was then administered continuously for 4 weeks using osmotic pumps, with DMSO as the vehicle control. At the end of the treatment period, echocardiography was performed again to assess the impact of compound 2 on cardiac function compared to the control group. […] In a FLNC knockout model using the Myh6-Cre:FLNC^wt/F mouse, 16-week-old mice underwent baseline echocardiography, were treated with compound 2 at 50 mg/Kg/day or vehicle by gavage for 6 weeks, and underwent echocardiography to assess the change in cardiac function. […] The genistein phosphate derivatives of this invention are therefore expected to be useful for the treatment of subjects with dilated cardiomyopathy."}, "16 month-old mice": {"tested_on": "16 month-old mice", "assay": "16 month-old mice with 7-day osmotic pumps", "format": "in vivo, mouse", "description": "Three groups of 16 month-old mice were implanted with 7-day osmotic pumps dispensing vehicle, 0.24 mg/Kg/day, and 2.4 mg/Kg/day of compound 2. All three groups of animals lost ˜1% of body weight over the 7 days."}, "Dp16 mice": {"tested_on": "Dp16 mice", "assay": "Dp16 mouse model of Down syndrome challenged with poly(I:C)", "format": "in vivo", "from_the_text": "Waugh et al., “Triplication of the interferon receptor locus contributes to hallmarks of Down syndrome in a mouse model”, Nat. Genet., 55, 1034-1047 (2023), note that the B6.129S7-Dp(16Lipi-Zbtb21)1Yey/J mouse model of DS, sometimes referred to as the Dp16 mouse, carries a segmental duplication of mouse chromosome 16 causing triplication of ˜120 protein-coding genes orthologous to those on human chromosome 21, including the Ifnr cluster; and that Dp16 mice display key phenotypes of DS including hyperactive IFN signaling, a dysregulated antiviral response, increased prevalence of heart defects, developmental delays, cognitive impairments and craniofacial anomalies. The TLR3 agonist polyinosinic-polycytidylic acid, poly(I:C), is an innate immune stimulus known to trigger an IFN response. Three groups of Dp16 mice were dosed from day ˜7 through 10 by gavage at 10 mg/Kg, twice/day for the first 5 days and once/day thereafter, with vehicle (2 groups) or compound 2 in vehicle (1 group), and one of the vehicle groups and the compound 2 group were dosed by injection with poly(I:C) on day 7, while the other vehicle group was given a sham injection. Treatment with compound 2 ameliorated the increased expressions of cytokines, IFNα and […], TNF-α, IL-2, -5, -6, -10, and -12P70, and attenuated the inflammatory response, including ameliorating the skin thickening, induced by Poly(I:C) in these Dp16 mice. Transcriptome analysis of liver samples identified gene sets substantially dysregulated in the Dp16 mice and attenuated by treatment with compound 2; including signatures of increased cell proliferation (E2F targets and G2/M checkpoint), increased JAK/STAT and interferon signaling, and decreased fatty acid metabolism. The genistein phosphate derivatives of this invention are therefore expected to be useful for the treatment of subjects with Down syndrome."}, "[3]": {"conditions": "0.24 and 2.4 mg/Kg/day, 7-day osmotic pumps"}}, "note": "Where two headings read alike, the source gives them in different places.", "data": [{"smiles": "O=c1c(-c2ccc(O)cc2)coc2cc(OCOP(=O)(O)O)cc(O)c12", "note": "[Compound 2, ((5-Hydroxy-3-(4-hydroxyphenyl)-4-oxo-4H-chromen-7-yl)oxy)methyl dihydrogen phosphate]", "values": [{"measurement": "solubility", "setting": "[1]; 25 °C, organic solvent or mixture, THF, both 25 and 50° C., read-out: solubility in THF", "result": "125000 to 250000", "unit": "µg/mL"}, {"measurement": "solubility", "setting": "[1]; 25 °C, organic solvent or mixture, methanol, both 25 and 50° C., read-out: solubility in methanol", "result": "> 250000", "unit": "µg/mL"}, {"measurement": "solubility", "setting": "[1]; organic solvent or mixture, DCM, 25° C., read-out: solubility in DCM", "result": "< 5000", "unit": "µg/mL"}, {"measurement": "solubility", "setting": "[1]; water, 25° C., approximate, visual observation, read-out: solubility in water", "result": "< 5000", "unit": "µg/mL"}, {"measurement": "solubility", "setting": "[1]; water, 50° C., approximate, visual observation, read-out: solubility in water", "result": "~5000", "unit": "µg/mL"}, {"measurement": "Percentage remaining at time: 1 hour", "setting": "[2]; 1 hour", "result": 100, "unit": "%"}, {"measurement": "Percentage remaining at time: 2 hours", "setting": "[2]; 2 hours", "result": 104, "unit": "%"}, {"measurement": "Percentage remaining at time: 6 hours", "setting": "[2]; 6 hours", "result": 116, "unit": "%"}, {"measurement": "Percentage remaining at time: 24 hours", "setting": "[2]; 24 hours", "result": 113, "unit": "%"}, {"measurement": "Percentage remaining at time: 0", "setting": "[2]; time 0", "result": 100, "unit": "%"}, {"measurement": "logP", "setting": "log P", "result": 1.59}, {"measurement": "contractility (fractional shortening) from baseline", "setting": "Myh6-Cre:FLNC^wt/F mouse", "result": "statistically significantly improved"}, {"measurement": "contractility over vehicle-treated animals", "setting": "Myh6-Cre:FLNC^wt/F mouse", "result": "improved"}, {"measurement": "left ventricular end-diastolic diameter", "setting": "Myh6-Cre:FLNC^wt/F mouse; over vehicle-treated animals", "result": "reduced"}, {"measurement": "left ventricular end-systolic diameter", "setting": "Myh6-Cre:FLNC^wt/F mouse; over vehicle-treated animals", "result": "reduced"}, {"measurement": "fasting blood glucose relative to the control group", "setting": "16 month-old mice; 2.4 mg/Kg/day group", "result": "significant decrease"}, {"measurement": "body weight lost over the 7 days", "setting": "16 month-old mice; 0.24 and 2.4 mg/Kg/day groups (same as vehicle group)", "result": "~1", "unit": "%"}, {"measurement": "IL-13 blood levels", "setting": "16 month-old mice; [3]", "result": "reduced in a dose-dependent manner"}, {"measurement": "Leptin blood levels", "setting": "16 month-old mice; [3]", "result": "reduced in a dose-dependent manner"}, {"measurement": "fasting blood glucose relative to the control group", "setting": "16 month-old mice; both treatment groups, 0.24 and 2.4 mg/Kg/day, 7-day osmotic pumps", "result": "lowered"}, {"measurement": "inflammatory response induced by Poly(I:C)", "setting": "Dp16 mice; 10 mg/Kg by gavage", "result": "attenuated"}, {"measurement": "skin thickening induced by Poly(I:C)", "setting": "Dp16 mice; 10 mg/Kg by gavage", "result": "ameliorating"}, {"measurement": "increased expressions of cytokines, IFNα and […], TNF-α, IL-2, -5, -6, -10, and -12P70", "setting": "Dp16 mice; 10 mg/Kg by gavage, twice/day first 5 days then once/day, poly(I:C) injection", "result": "ameliorated"}, {"measurement": "dysregulated liver gene sets (cell proliferation, JAK/STAT and interferon signaling, fatty acid metabolism)", "setting": "Dp16 mice; transcriptome analysis of liver samples", "result": "attenuated"}]}]}
